From patent US6410792B1, “Amide derivatives and methods for using the same as selective neuropeptide Y receptor antagonists” (Bayer Corporation, priority 1997, dated 2002)

Assays:
Y2 receptor = molecular target: T1, Y2 receptor (Homo sapiens, UniProt P49146); test: Y2 receptor binding assay ([125I]PYY, membrane protein); settings: [125I]PYY, membrane protein; read-out: hNPY2 IC50
T1 sequence (P49146 1-381): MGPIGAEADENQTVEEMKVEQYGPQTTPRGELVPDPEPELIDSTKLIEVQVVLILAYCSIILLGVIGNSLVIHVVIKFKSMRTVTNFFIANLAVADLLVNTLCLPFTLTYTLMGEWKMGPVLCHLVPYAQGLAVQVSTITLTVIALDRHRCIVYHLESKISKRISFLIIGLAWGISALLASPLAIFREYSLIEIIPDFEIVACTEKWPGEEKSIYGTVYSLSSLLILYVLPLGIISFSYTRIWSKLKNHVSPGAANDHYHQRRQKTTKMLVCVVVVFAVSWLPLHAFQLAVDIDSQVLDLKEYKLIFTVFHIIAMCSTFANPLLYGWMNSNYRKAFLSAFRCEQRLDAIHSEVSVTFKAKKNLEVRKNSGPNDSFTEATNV
How it was run: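 Filtration binding with membrane protein and drug dilution, 2 h at room temperature with mixing, radioactivity counted by gamma or scintillation. Y2: 25 pM [125I]PYY in Krebs-Ringer bicarbonate pH 7.4 with 0.01% BSA, nonspecific by 1 μM NPY. Y4/PP1: 50 pM [125I]hPP in HEPES-buffered saline pH 7.4 with protease inhibitors and 0.3% BSA, nonspecific by 1 μM hPP.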

human Y4/PP1 receptor = human Y4/PP1 receptor (Homo sapiens, UniProt P50391); test: Human Y4/PP1 receptor binding assay ([125I]human PP, membrane protein); settings: [125I]human PP, membrane protein; read-out: hNPY4 IC50
Method: B. Human Y2 and Y4/PP1 Receptor Binding Assays
Binding assays were performed on GF/C Millipore 96-well plates pretreated with 0.02% polyethylenimine. The binding buffer for rat Y2 binding is Krebs-Ringer bicarbonate (pH 7.4) containing 0.01% BSA and 0.005% bacitracin. Samples consist of membrane protein, 25 pM [1251]PYY and drug dilution. Nonspecific binding is defined by 1 μM NPY. The binding buffer for human Y4/PP1 binding consists of 137 mM NaCl, 5.4 mM KCl, 0.44 mM KH2PO4, 1.26 mM CaCl2, 0.81 mM MgSO4, 20 mM HEPES, 1 mM dithiothreitol, 0.1% bacitracin, 100 mg/l streptomycin sulfate, 1 mg/l aprotinin, 10 mg/ml soybean trypsin inhibitor and 0.3% BSA, pH 7.4. Samples consist of membrane protein, 50 pM human [1251]human PP (hPP: NEN DuPont, Boston, Mass.) and drug dilution. 1 μM hPP is used to define nonspecific binding.
After a 2 hour incubation at room temperature with constant mixing, the samples are aspirated on a vacuum manifold, and rinsed with ice-cold binding buffer. The amount of radioactivity in each well is quantitated with either gamma counting or liquid scintillation.

Human NPY5 receptor = molecular target: T2, Human NPY5 receptor (Homo sapiens, UniProt Q15761); test: Human NPY5 receptor binding assay ([125I]PYY, membrane protein); settings: [125I]PYY, read-out: hNPY5 IC50
T2 sequence (Q15761 1-445): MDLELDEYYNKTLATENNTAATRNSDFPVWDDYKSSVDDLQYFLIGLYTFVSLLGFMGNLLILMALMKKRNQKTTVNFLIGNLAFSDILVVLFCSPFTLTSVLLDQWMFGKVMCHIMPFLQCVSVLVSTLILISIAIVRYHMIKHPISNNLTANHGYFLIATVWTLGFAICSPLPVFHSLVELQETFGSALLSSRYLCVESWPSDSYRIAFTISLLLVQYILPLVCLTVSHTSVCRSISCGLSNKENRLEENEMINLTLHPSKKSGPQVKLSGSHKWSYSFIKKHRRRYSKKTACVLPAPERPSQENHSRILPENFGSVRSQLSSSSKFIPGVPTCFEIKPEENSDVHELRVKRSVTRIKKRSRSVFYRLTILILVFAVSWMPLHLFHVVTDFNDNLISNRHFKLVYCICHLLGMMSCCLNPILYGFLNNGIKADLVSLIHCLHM
How it was run: (§1)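 Competition against porcine [125I]PYY (75-100 pM) on receptor membranes, 2 h, room temperature, Tris-based pH 7.4 buffer with BSA and bacitracin. Bound radioactivity after filtration and ice-cold rinse counted by gamma or liquid scintillation; 1 μM PYY defines nonspecific binding.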

Human NPY1 receptor = molecular target: T3, Human NPY1 receptor (Homo sapiens, UniProt P25929); test: Human NPY1 receptor binding assay ([125I]PYY, SK-N-MC cells); settings: [125I]PYY, SK-N-MC cells; read-out: hNPYI IC50
T3 construct: host or cells: SK-N-MC cells
T3 sequence (P25929 1-384): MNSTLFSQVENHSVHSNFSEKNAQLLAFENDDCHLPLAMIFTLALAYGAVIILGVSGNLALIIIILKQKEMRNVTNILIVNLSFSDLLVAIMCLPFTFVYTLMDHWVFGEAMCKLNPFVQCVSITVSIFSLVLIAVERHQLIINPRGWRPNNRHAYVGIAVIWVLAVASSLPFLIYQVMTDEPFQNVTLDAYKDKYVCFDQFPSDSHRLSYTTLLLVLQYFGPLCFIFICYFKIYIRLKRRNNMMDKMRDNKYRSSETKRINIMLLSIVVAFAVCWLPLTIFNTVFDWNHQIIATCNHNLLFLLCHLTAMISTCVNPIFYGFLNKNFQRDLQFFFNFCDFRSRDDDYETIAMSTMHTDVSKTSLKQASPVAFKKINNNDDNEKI
Method: A. Human NPY1 Receptor Binding Assay
This is a modification of Gordon et al., (J. Neurochem. 55:506-513, 1990). SK-N-MC cell (ATCC, Rockville, Md.) were plated in 24-well plates. Once confluent, cells were rinsed with Dulbecco's phosphate buffered saline (DPBS). Cells were then preincubated in binding buffer containing serum-free DMEM, 25 mM HEPES (pH 7.3), 0.5% bovine serum albumin (BSA), 0.1% bacitracin and 0.1 mM phenylmethylsulfonylfluoride for 30 minutes at room temperature. Drug dilution and [125I]PYY (˜50 pM: NEN-DuPont) were added to the wells, and the cells were incubated for an additional 3 hours at room temperature, followed by rinsing with ice-cold DPBS. Nonspecific binding was defined with 1 μM NPY. After lysing the cells with 1% Triton X-100, the amount of radioactivity in the lysates was quantitated with a gamma counter.

Rat NPY5 receptor = molecular target: T4, Rat NPY5 receptor (Rattus norvegicus, UniProt Q63634); test: Rat NPY5 receptor binding assay ([125I]PYY, membrane protein); settings: [125I]PYY, read-out: rNPY5 IC50
T4 sequence (Q63634 1-445): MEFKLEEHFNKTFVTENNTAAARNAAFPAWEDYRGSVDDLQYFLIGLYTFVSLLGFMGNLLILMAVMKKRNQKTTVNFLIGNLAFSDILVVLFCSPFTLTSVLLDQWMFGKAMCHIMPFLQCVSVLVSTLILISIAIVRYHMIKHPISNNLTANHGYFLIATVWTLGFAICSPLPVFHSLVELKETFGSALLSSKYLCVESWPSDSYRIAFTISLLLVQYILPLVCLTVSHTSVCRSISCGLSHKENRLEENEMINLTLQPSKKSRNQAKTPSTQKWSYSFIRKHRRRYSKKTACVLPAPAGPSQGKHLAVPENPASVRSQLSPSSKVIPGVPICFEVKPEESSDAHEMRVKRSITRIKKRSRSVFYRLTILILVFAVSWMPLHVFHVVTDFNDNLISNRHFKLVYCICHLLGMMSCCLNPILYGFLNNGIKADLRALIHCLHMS
How it was run: as §1

Sequence of human Y4/PP1 receptor (P50391 whole entry): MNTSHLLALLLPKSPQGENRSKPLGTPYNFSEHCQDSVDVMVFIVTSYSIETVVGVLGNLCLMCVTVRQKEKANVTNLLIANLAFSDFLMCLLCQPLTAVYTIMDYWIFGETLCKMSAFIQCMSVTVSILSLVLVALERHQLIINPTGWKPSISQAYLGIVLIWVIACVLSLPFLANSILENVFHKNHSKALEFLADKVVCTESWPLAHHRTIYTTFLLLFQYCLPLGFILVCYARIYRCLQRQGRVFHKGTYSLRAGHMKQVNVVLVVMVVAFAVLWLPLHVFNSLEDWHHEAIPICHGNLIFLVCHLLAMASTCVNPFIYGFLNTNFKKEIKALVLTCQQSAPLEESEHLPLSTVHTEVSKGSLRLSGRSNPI

Compound `O.O=C(CN1CCC(n2c(=O)[nH]c3ccccc32)CC1)Nc1ccc(-c2cnco2)cc1` (hydrate or solvate) [Compound 267, N-(4-Oxazol-5-yl-phenyl)-2-[4-(2-oxo-2,3-dihydro-benzoimidazol-1-yl)-piperidin-1-yl]-acetamide; hydrate] has a melting point of 177 to 178 °C.
For `O=C(CN1CCC(n2c(=O)[nH]c3ccccc32)CC1)NCC1CCCO1` (stereo not shown) [Compound 285, 2-[4-(2-Oxo-2,3-dihydro-benzoimidazol-1-yl)-piperidin-1-yl]-N-(tetrahydro-furan-2-ylmethyl)-acetamide], the melting point was 179 to 180 °C, the IC50 (Y2 receptor) was greater than 5 µM and the IC50 (human Y4/PP1 receptor) was greater than 5 µM.
With `O=C(CN1CCC(n2c(=O)[nH]c3ccccc32)CC1)NC1CCCC1.O=C(O)C(=O)O` [Compound 288, N-Cyclopentyl-2-[4-(2-oxo-2,3-dihydro-benzoimidazol-1-yl)-piperidin-1-yl]-acetamide; compound with oxalic acid] the melting point was 217 to 218 °C, the IC50 (Y2 receptor) was greater than 5 µM and the IC50 (human Y4/PP1 receptor) was greater than 5 µM.
For `CC(C)OCCCNC(=O)CN1CCC(n2c(=O)[nH]c3ccccc32)CC1` [Compound 289, N-(3-Isopropoxy-propyl)-2-[4-(2-oxo-2,3-dihydro-benzoimidazol-1-yl)-piperidin-1-yl]-acetamide], the melting point was 67 to 68 °C.
For `Cl.O=C(CN1CCC(n2c(=O)[nH]c3ccccc32)CC1)N1CCCCCCC1` [Compound 305, 1-[1-(2-Azocan-1-yl-2-oxo-ethyl)-piperidin-4-yl]-1,3-dihydro-benzoimidazol-2-one; hydrochloride], the melting point was 158 °C, the IC50 (Y2 receptor) was greater than 5 µM and the IC50 (human Y4/PP1 receptor) was greater than 5 µM.
With `Cl.O=C(CN1CCC(n2c(=O)[nH]c3ccccc32)CC1)Nc1cccc2c1C(=O)c1ccccc1-2` [Compound 307, 2-[4-(2-Oxo-2,3-dihydro-benzoimidazol-1-yl)-piperidin-1-yl]-N-(9-oxo-9H-fluoren-1-yl)-acetamide; hydrochloride] the melting point was 204 °C, the IC50 (Y2 receptor) was greater than 5 µM and the IC50 (human Y4/PP1 receptor) was greater than 5 µM.
`O=C(CN1CCC(n2c(=O)[nH]c3ccccc32)CC1)N1CCCCCC1` [Compound 309, 1-[1-(2-Azepan-1-yl-2-oxo-ethyl)-piperidin-4-yl]-1,3-dihydro-benzoimidazol-2-one] showed a melting point of 166 °C, an IC50 (Y2 receptor) greater than 5 µM and an IC50 (human Y4/PP1 receptor) greater than 5 µM.
For `CC(=O)Nc1ccc(NC(=O)CN2CCC(n3c(=O)[nH]c4ccccc43)CC2)cc1` [Compound 351, N-(4-Acetylamino-phenyl)-2-[4-(2-oxo-2,3-dihydro-benzoimidazol 1-yl)-piperidin-1-yl]-acetamide, reference compound], the IC50 (Human NPY5 receptor) was 0.58 µM, the IC50 (Y2 receptor) was greater than 5 µM and the IC50 (Human NPY1 receptor) was greater than 5 µM. It also gave an IC50 (Rat NPY5 receptor) of 0.979 µM and an IC50 (human Y4/PP1 receptor) greater than 5 µM.
With `CN(C)c1ccc(NC(=O)CN2CCC(n3c(=O)[nH]c4ccccc43)CC2)cc1` [Compound 353, N-(4-Dimethylamino-phenyl)-2-[4-(2-oxo-2,3-dihydro-benzoimidazol-1-yl)-piperidin-1-yl]acetamide, reference compound] the IC50 (Human NPY5 receptor) was 0.135 µM, the IC50 (Y2 receptor) was greater than 5 µM and the IC50 (Human NPY1 receptor) was greater than 5 µM. The IC50 (Rat NPY5 receptor) was 0.187 µM and the IC50 (human Y4/PP1 receptor) was greater than 5 µM.
For `O=C(CN1CCC(n2c(=O)[nH]c3ccccc32)CC1)Nc1ccc([N+](=O)[O-])cc1` [Compound 355, N-(4-Nitro-phenyl)-2-[4-(2-oxo-2,3-dihyro-benzoimidazol-1-yl)-piperidin-1-yl]-acetamide, reference compound], the IC50 (Human NPY5 receptor) was 0.2 µM, the IC50 (Y2 receptor) was greater than 5 µM and the IC50 (Human NPY1 receptor) was greater than 5 µM. The IC50 (Rat NPY5 receptor) was 0.19 µM and the IC50 (human Y4/PP1 receptor) was greater than 5 µM.
In the case of `O=C(CN1CCC(n2c(=O)[nH]c3ccccc32)CC1)Nc1ccc(Cl)cc1` [Compound 358, N-(4-Chloro-phenyl)-2-[4-(2-oxo-2,3-dihydro-benzoimidazol-1-yl)-piperidin-1-yl]-acetamide, reference compound], the IC50 (Human NPY5 receptor) is reported as 0.73 µM, the IC50 (Y2 receptor) is reported as greater than 5 µM and the IC50 (Human NPY1 receptor) is reported as greater than 5 µM. For the same compound, the IC50 (Rat NPY5 receptor) was 0.443 µM and the IC50 (human Y4/PP1 receptor) was greater than 5 µM.
`COC(=O)c1ccc(NC(=O)CN2CCC(n3c(=O)[nH]c4ccccc43)CC2)cc1` [Compound 360, 4-(2-[4-(2-Oxo-2,3-dihydro-benzoimidazol-1-yl)-piperidin-1-yl]-acetylamino)-benzoic acid methyl ester, reference compound] showed an IC50 (Human NPY5 receptor) of 0.055 µM, an IC50 (Y2 receptor) greater than 5 µM and an IC50 (Human NPY1 receptor) greater than 5 µM. It also gave an IC50 (Rat NPY5 receptor) of 0.0562 µM and an IC50 (human Y4/PP1 receptor) greater than 5 µM.
`COc1ccc(NC(=O)CN2CCC(n3c(=O)[nH]c4ccccc43)CC2)cc1` [Compound 361, N-(4-Methoxy-phenyl)-2-[4-(2-oxo-2,3-dihydro-benzoimidazol-1-yl)-piperidin-1-yl]-acetamide, reference compound] showed an IC50 (Human NPY5 receptor) of 0.41 µM, an IC50 (Y2 receptor) greater than 5 µM and an IC50 (Human NPY1 receptor) greater than 5 µM. It also gave an IC50 (Rat NPY5 receptor) of 0.539 µM and an IC50 (human Y4/PP1 receptor) greater than 5 µM.
Work on “N-(2-Amino-4-propylsulfnyl-phenyl)-2-[4-(2-oxo-2,3-dihydro-benzoimidazol-1-yl)-pipendin-1-yl]-acetamide; compound with GENERIC INORGANIC NEUTRAL COMPONENT [Compound 339, reference compound]” yielded an IC50 (Human NPY5 receptor) of 0.034 µM, an IC50 (Y2 receptor) greater than 5 µM and an IC50 (Human NPY1 receptor) greater than 5 µM. It also gave an IC50 (Rat NPY5 receptor) of 0.031 µM and an IC50 (human Y4/PP1 receptor) greater than 5 µM.
